Data published in a melting point compilation (Tetko et al.; mined from patent text by program, amines drawn as free bases though some values may be those of a salt).

SMILES | melting point [°C]
Cc1nc(N2CCCC(Cc3cccnc3)C2=O)sc1C(=O)NCc1ccccc1 (stereo not given) | 140 to 141
OCCCc1cc(-c2ccc(C(F)(F)F)cc2)no1 | 59 to 60
O=c1[nH]c2ccccc2cc1CN1CC=C(Cc2ccccc2)CC1 | 155 to 158
CNC(=O)C(=O)c1cc(Cl)cc(C)c1NC(=O)c1cc(Br)nn1-c1ncccc1Cl | 246 to 247
Cc1ccccc1NC(=NC#N)NC(NC(=O)Cc1ccc(Cl)cc1)C(C)(C)C (stereo not given) | 181 to 182
O=c1[nH]c(CCCl)c(Cl)c(=O)[nH]1 | 225
CC(C)CC(=O)Nc1ccc(-c2ccnc3c(C(=O)c4cccs4)cnn23)s1 | 268 to 270
CSc1cccc(NC(=O)NCC(=O)N2[C@@H](C(=O)OC(C)(C)C)C[C@H](C(=O)O)[C@H]2c2ccccc2)c1 (racemic) | 130
CCc1c(O)cccc1O | 58 to 59
Cn1nnnc1CC(=O)c1cc(F)c(F)cc1N | 162 to 164
O=C1CC2(CCO1)c1ccccc1Oc1ccccc12 | 156 to 159
COc1ccccc1OCC(O)CN1CCC(=O)CC1 (stereo not given) | 77 to 78
CCCCn1c(=O)c2c(NC)n[nH]c2n(Cc2ccc(OC)cc2)c1=O | 292 to 294
CCc1nn(C2CCCC2)c2c1CCn1c(-c3cccs3)nnc1-2 | 126
O=C(O)C(O)=CC(=O)c1cn(Cc2ccccc2)cc(Cc2ccccc2)c1=O | 140 to 142
Cc1cc(SC2=C(O)CC(CCc3cccnc3)(C(C)C)OC2=O)c(C(C)(C)C)cc1CO (stereo not given) | 122 to 125
O=C1c2cccc3c([N+](=O)[O-])ccc(c23)C(=O)N1O | 255 to 260
O=C(O)c1ccc(-c2csc(-c3cccnc3)n2)cc1 | > 300
CCn1nc(-c2c(-c3ccc(F)cc3)nn3ccc(OC)cc23)ccc1=O | 179 to 180
O=C(O)C1CCSc2ccc(Cl)cc21 (stereo not given) | 139 to 150
CCCCSc1nc(N)nc2c1ncn2C1C=CC(CO)C1 (stereo not given) | 120 to 123
COc1cc(Cl)c2nc(-c3ccc(OC)c(F)c3)cc(Br)c2c1 | 156 to 157
O=[N+]([O-])c1ccc(CF)cc1[N+](=O)[O-] | 37.5 to 38.5
Cc1ccc2c(c1)c(=O)c(-c1nnnn1C)cn2C | 281 to 282
COC(C)=CC(=O)NC1CCCC1 | 94

SMILES | melting point [°C]
CCCc1ccc(Cc2cccc(NC(N)=O)c2)n1CCC | 123 to 126
O=C(CNc1ccc(Cl)cc1)c1cc(O)c(O)c([N+](=O)[O-])c1 | 177 to 178
COc1cc(OC)c(CN2CCc3cc(O)c(OC)cc3C2)c(OC)c1 | 150 to 151
[N-]=[N+]=C1c2ccccc2-c2ccc(Cl)cc21 | 102 to 108
O=C1c2ccccc2C(Nc2ccccc2)N1CCCN1CC=C(c2ccccc2)CC1 (stereo not given) | 119
COC(=O)c1ccc(C(O)c2cc3cc(C(F)(F)F)ccc3n2S(=O)(=O)c2ccc(C(C)C)cc2)cc1 (stereo not given) | 68
C1CNCCCNCCCNCCCNC1 | 84 to 86
COC(=O)c1ccc(C=CC(=O)N2CCc3c([nH]c4ccccc34)C2c2ccc3c(c2)CCO3)cc1 (stereo not given) | 186
CN(C)C(=O)c1nc2n(n1)-c1ccc(Cl)cc1C(c1ccccc1)=NC2 | 135 to 137
Cc1nc(N)nc(N)c1-c1cccc(Cl)c1Cl | 245 to 247
CC12CC(N3CCCCC3)CCC1CCC1C2CCC2(C)C(O)C(N3CCCCC3)CC12 (stereo not given) | 176 to 181
COC(=O)c1nc(-c2ccccc2)n(-c2ccc(Cl)cc2)n1 | 136 to 137
COc1cc(N)c(Cl)cc1C(=O)NCC1CCN(CCOCc2ccccc2)CC1 | 123 to 125
CCOC(=O)c1cc(OC(C)=O)c2c(OC)ccc(OC)c2c1 | 110 to 112
COc1cc2c3ccc(OC)c(OC)c3n(C(=O)c3ccc(C(C)(C)C)cc3)c2cc1OC | 129 to 131
CC(Oc1cc(-c2ccccc2)nc2ccccc12)C(=O)N1CCSCC1 (stereo not given) | 198
CCOC(=O)c1cnc2nn(CC)cc2c1O | 197 to 198
CCCC(CCC)n1c(CC)nc2c1C(=O)N(C)C(CC)N2c1ccc(Cl)cc1Cl (stereo not given) | 116 to 118
Fc1cccc(F)c1Cn1c(-c2c(F)cccc2F)nc2ccccc21 | 145
Cc1cc(-c2nnc3c4ccccc4c(OCn4cccn4)nn23)no1 | 235 to 237
O=[N+]([O-])c1cccc2c(CO)ccnc12 | 148
O=C(CCO)N1c2ccccc2CCC1CN1CCN(c2cccc3[nH]ccc23)CC1 (stereo not given) | 58 to 61
CCC(=O)c1cnc(C(=O)C(C)C)cn1 | 70 to 71
CCOC(=O)C1(CNC(=O)C=CC(Cc2ccc3ccccc3c2)N(C)C(=O)c2cc(C(F)(F)F)cc(C(F)(F)F)c2)CCCC1 (stereo not given) | 136 to 138
COc1cc(C(C)=O)cc(N)c1OC | 63 to 65
